Tests used:
F. tularensis GyrB = F. tularensis GyrB (Francisella tularensis subsp. tularensis, UniProt Q5NHE7); assay: biochemical; type: binding
[1] = target: T1, E. coli gyrase A2B2 heterotetramer (Escherichia coli, UniProt P0AES6); assay: Gyrase activity assay (supercoiling of relaxed plasmid DNA); type: biochemical; details: 50 μM compound, 0.5 μg relaxed DNA, 1 hour at 37° C., agarose gel
T1 construct: purchased Topogen

F. tularensis GyrB, sequence (Q5NHE7 1-805): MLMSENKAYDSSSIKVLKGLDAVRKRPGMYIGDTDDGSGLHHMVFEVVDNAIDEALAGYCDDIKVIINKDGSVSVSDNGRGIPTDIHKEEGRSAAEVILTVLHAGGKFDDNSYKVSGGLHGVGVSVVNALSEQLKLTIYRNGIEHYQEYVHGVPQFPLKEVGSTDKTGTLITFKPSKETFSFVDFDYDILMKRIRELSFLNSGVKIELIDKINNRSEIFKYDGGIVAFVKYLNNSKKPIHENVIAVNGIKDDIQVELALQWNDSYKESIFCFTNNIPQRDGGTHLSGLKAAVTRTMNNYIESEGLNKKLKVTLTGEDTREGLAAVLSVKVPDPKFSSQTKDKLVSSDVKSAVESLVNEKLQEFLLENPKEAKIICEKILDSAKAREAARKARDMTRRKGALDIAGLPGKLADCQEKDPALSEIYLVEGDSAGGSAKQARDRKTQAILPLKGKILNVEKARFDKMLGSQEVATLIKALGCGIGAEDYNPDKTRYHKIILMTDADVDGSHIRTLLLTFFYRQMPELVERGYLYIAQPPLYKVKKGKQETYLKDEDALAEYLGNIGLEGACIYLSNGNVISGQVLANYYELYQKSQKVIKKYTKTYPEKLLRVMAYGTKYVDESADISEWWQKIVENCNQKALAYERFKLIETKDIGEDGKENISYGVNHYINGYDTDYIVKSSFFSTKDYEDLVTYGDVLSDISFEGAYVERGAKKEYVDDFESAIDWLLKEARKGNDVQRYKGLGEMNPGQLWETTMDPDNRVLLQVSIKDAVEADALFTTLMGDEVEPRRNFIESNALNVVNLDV

Structure (SMILES) | Ki (F. tularensis GyrB) | inhibition of supercoiling of relaxed DNA [1]
COc1cccc2c1C(=O)c1c(O)c3c(c(O)c1C2=O)C[C@@](O)(C(C)=O)C[C@@H]3O[C@H]1C[C@H](N)[C@H](O)[C@H](C)O1 [daunorubicin] | 444 nM | less clear
COc1cccc2c1C(=O)c1c(O)c3c(c(O)c1C2=O)C[C@@](O)(C(=O)CO)C[C@@H]3O[C@H]1C[C@H](N)[C@H](O)[C@H](C)O1 [doxorubicin] | 94 nM | inhibit supercoiling to the level of the no gyrase control
COc1cccc2c1C(=O)c1c(O)c3c(c(O)c1C2=O)C[C@@](O)(C(=O)CO)C[C@@H]3O[C@H]1C[C@H](N)[C@@H](O)[C@H](C)O1 [epirubicin] | 386 nM | inhibit supercoiling to the level of the no gyrase control
CC(=O)[C@]1(O)Cc2c(O)c3c(c(O)c2[C@@H](O[C@H]2C[C@H](N)[C@H](O)[C@H](C)O2)C1)C(=O)c1ccccc1C3=O [idarubicin] | 480 nM | less clear
